US9815815B2, “Non-selective kinase inhibitors” (GILEAD SCIENCES, INC., priority 2013, dated 2017)
Marks after values point to notes of the source that are not given here.

What was measured:
[1] = tested on: AKT; experiment: NanoPro immunoassay pAKT/AKT in lung extracts, MCT+PN model; type: in vivo, rat
[2] = Body weight of treated subjects; type: in vivo, rat; conditions: treated vs. vehicle groups
[3] = tested on: PDGFBB stimulated phosphorylation of ERK1 and ERK2; experiment: PDGFBB stimulated phosphorylation of ERK1 and ERK2 in human fetal lung fibroblasts; type: cell-based
[4] = tested on: PDGFAA stimulated AKT phosphorylation; experiment: In cell Western (ICW), PDGFAA stimulated AKT phosphorylation in human fetal lung fibroblasts; type: cell-based; conditions: comparison in words
Description: In cell Western (ICW). […] HLFs were maintained in subculture at no more than 6 passages in DMEM with 5% FBS and 4 mM Glutamax at 37° C., 5% CO2. HLFs were plated and grown to 70-80% confluence in 96 well plates then serum-starved for 48 hours. […] After washing, the signal was quantified using an Odyssey Infrared Imaging System (LI-COR). Phosphoprotein signal (800 nm) was normalized to total protein signal (700 nm) acquired from each well and experimental duplicates on same plate were averaged and reported.

[5] = tested on: rat MCT model; experiment: PK10453 dose response study in the rat MCT model; type: in vivo
Description: Efficacy study in the rat MCT model—PK10453 (Structure 2) dose response study in the rat MCT Model. Male Sprague Dawley rats received MCT 60 mg/kg IPMCT, and after 3 weeks, PK10453 (Structure 2) or vehicle control were administered by inhalation. Four groups were studied: vehicle control (4 min exposure) and three treatment groups of PK10453 (Structure 2) with exposure times 2 min (D2), 4 min (D4), or 8 min (D8) three times a day. These regimens were administered for two weeks. The vehicle consisted of aerosolized 1M tosylic acid neutralized with ammonia vapor as described above. The pH of a solution prepared by dissolving captured aerosol particles in water was measured for every dose and was consistently in the range of 5.5-6.0. At the end of the study, the RV systolic pressure was measured, and the heart chambers dissected and weighed.

[6] = Two-chamber plethysmography in the rat MCT+PN model; type: in vivo; parameters: SRaw: unit not given beside the values
Description: Plethysmography. Plethysmography was performed with an EMKA dual chamber plethysmograph and IOX software. Parameters measured included breathing frequency, tidal volume, minute ventilation, peak inspiratory and expiratory flow, and airway resistance (SRaw). Animals were acclimatized to the plethysmograph for three days prior to first data acquisition. Measurements were made prior to the first dose of drug and at the end of the study.

Q: Which results are given for COc1cc(-c2cncc(N[C@@H](C)c3cccc(NC(=O)c4cncc(C)c4)c3)n2)ccc1O [PK10453, (S)-N-(3-(1-((6-(4-hydroxy-3-methoxyphenyl)pyrazin-2yl)amino)ethyl)phenyl)-5-methylnicotinamide]?
A: pAKT(Thr308)/AKT ratio in lung extracts ([1]; D4, D8 vs vehicle): not significantly different; pAKT(Ser473)/AKT ratio in lung extracts ([1]; treated vs vehicle): significant reduction; body weight, in words [2]: trend to a slower rate of decline in body weight; PDGFBB stimulated ppERK1 formation ([3]; 1 uM): effective; decreasing PDGF BB stimulated ppERK1 and ppERK2, compared to imatinib ([3]; 1 uM and 10 uM): more effective; IC50 for PDGFAA stimulated phosphorylation of AKT, PK10453 vs imatinib [4]: not significantly different; reduction in RVSP compared to the vehicle treated group ([5]; D4): 44%; reduction in RVSP compared to the vehicle treated group ([5]; D8): 54%; RV hypertrophy, ratio (RV+IVS)/LV weight ([5]; inhalation, two weeks, in words): significant reduction; decrease of RV systolic pressure ([5]; rat MCT model, inhalation): 50%; MV ([6]; day 1, D4, mean): 223.24 mL/min; PEF ([6]; day 1, D4, mean): 11.04; PIF ([6]; day 1, D4, mean): 9.82; SRaw ([6]; day 1, D4, mean): 39.73; TV ([6]; day 1, D4, mean): 1.00 mL; f ([6]; day 1, D4, mean): 224.68 breaths per minute; MV ([6]; day 1, D8, mean): 174.68 mL/min; PEF ([6]; day 1, D8, mean): 9.43; PIF ([6]; day 1, D8, mean): 8.54; SRaw ([6]; day 1, D8, mean): 36.01; TV ([6]; day 1, D8, mean): 0.74 mL; f ([6]; day 1, D8, mean): 259.13 breaths per minute; MV ([6]; day 15, D4, mean): 176.12§; PEF ([6]; day 15, D4, mean): 9.33*; PIF ([6]; day 15, D4, mean): 7.82*; SRaw ([6]; day 15, D4, mean): 33.09; TV ([6]; day 15, D4, mean): 0.85; f ([6]; day 15, D4, mean): 217.12 breaths per minute; MV ([6]; day 15, D8, mean): 128.49; PEF ([6]; day 15, D8, mean): 6.64; PIF ([6]; day 15, D8, mean): 6.06; SRaw ([6]; day 15, D8, mean): 49.26; TV ([6]; day 15, D8, mean): 0.63; f ([6]; day 15, D8, mean): 232.11 breaths per minute; effect on lung function, in words ([6]; inhaled, 2-wk course): did not adversely affect lung function
